This note sets out measurements from patent US9296734B2 (AMGEN INC., priority 2013, dated 2016).

Experiment [1] deals with Cathepsin D (Cat D) (Homo sapiens (Human), UniProt P07339). Kind of experiment: In vitro enzymatic Cathepsin D (Cat D) FRET assay. The note with it: read-out: CatD IC50. In kind it is biochemical. Summed up: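 CHO-expressed recombinant Cat D cleaves a fluorophore/quencher FRET peptide (20 nM) in 0.05 M citrate pH 3.5, 5 mM CHAPS, 10% DMSO final, over 1 h. Tris addition neutralizes pH to stop the reaction; fluorescence read at excitation 500 nm, emission 580 nm.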

The test system of experiment [2] is Aβ40 in conditioned medium of cells stably expressing Amyloid Precursor Protein (APP). Put plainly: In vitro BACE cell-based assay (Aβ40 sandwich ELISA). The note with it: Homo sapiens. Summed up:
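Secreted Aβ40 was quantified by sandwich ELISA (pAb40 capture, biotinylated 6E10 detection, Europium time-resolved fluorescence). IC50 derived from percent inhibition versus concentration.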

Experiment [3] deals with Beta Secretase enzyme (BACE) (Homo sapiens (Human), UniProt P56817). Kind of experiment: In vitro enzymatic BACE FRET assay. The experiment is classed as biochemical. The note with it: read-out: BACE 1 FRET assay IC50. A digest of the protocol: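 Reactions ran in 0.05 M acetate pH 4.2 with 10% DMSO final and 100 uM genapol. They were started with 50 nM peptide FRET substrate (fluorophore and quencher flanking the BACE cleavage site) and incubated one hour. Tris addition raised the pH to neutral to stop the reaction before fluorescence reading.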

[4] abbreviates: HEK293, HEK cells, average, read-out: HEK cell assay IC50.
[5] abbreviates: HEK293, read-out: HEK cell assay IC50.

Read-outs that look alike come from different tables or passages of the source. Some results are limits rather than exact numbers.

Chain of Cathepsin D (Cat D) (P07339 65-412, species assumed): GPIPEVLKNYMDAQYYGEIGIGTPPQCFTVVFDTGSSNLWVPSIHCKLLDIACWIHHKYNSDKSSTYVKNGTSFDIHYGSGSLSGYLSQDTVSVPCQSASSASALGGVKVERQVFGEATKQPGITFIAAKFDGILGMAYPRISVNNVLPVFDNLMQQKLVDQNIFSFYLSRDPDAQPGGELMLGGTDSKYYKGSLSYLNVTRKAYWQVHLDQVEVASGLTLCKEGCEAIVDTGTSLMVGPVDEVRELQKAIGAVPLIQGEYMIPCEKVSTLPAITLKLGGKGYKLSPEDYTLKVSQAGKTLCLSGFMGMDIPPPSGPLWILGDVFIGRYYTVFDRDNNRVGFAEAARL
Chain of Beta Secretase enzyme (BACE) (P56817 46-501): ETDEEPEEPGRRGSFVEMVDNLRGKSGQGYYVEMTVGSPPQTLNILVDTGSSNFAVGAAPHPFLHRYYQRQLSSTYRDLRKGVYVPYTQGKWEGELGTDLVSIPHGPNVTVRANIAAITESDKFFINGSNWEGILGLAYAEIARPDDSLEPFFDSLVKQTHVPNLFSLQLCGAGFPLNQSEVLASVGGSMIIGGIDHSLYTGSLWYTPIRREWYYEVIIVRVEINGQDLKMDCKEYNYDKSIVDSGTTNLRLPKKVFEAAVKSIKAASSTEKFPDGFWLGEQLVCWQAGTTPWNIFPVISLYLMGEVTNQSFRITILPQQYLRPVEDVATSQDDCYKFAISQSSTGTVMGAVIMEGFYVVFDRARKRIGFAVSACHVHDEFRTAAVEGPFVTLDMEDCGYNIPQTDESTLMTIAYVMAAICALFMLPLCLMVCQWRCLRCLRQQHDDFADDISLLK

Turning to `C#CCOc1cnc(C(=O)Nc2cc(F)c(F)c([C@]3(C)C[C@@H](C(F)(F)F)OC(N)=N3)c2)cn1` [Example 190, N-(3-((4S,6S)-2-amino-4-methyl-6-(trifluoromethyl)-5,6-dihydro-4H-1,3-oxazin-4-yl)-4,5-difluorophenyl)-5-(prop-2-yn-1-yloxy)pyrazine-2-carboxamide], the IC50 in experiment [1] (average IC50, cathepsin D enzyme assay) was more than 400 µM; in experiment [1] (average), 505 µM; in experiment [2] (setting [4]), 0.002 µM; in experiment [2] (HEK293, average IC50, HEK cell assay, read-out: HEK cell assay IC50), more than 15.6 µM; in experiment [3] (average IC50, BACE enzyme assay), more than 40 µM; in experiment [3] (average) it was 0.002 µM.

As to `Cc1cc(OCC2CC2)cnc1C(=O)Nc1cc(F)c(F)c([C@]2(C)C[C@@H](C(F)(F)F)OC(N)=N2)c1` [Example 191, N-(3-((4S,6S)-2-amino-4-methyl-6-(trifluoromethyl)-5,6-dihydro-4H-1,3-oxazin-4-yl)-4,5-difluorophenyl)-5-(cyclopropylmethoxy)-3-methylpicolinamide], the values for the IC50 in experiment [1] (average), in experiment [2] (setting [4]) and in experiment [3] (average) were 511 µM, 0.549 µM and 0.097 µM, respectively.

On to `C[C@@]1(c2cc(NC(=O)c3cnc(C(F)F)cn3)cc(F)c2F)C[C@@H](C(F)(F)F)OC(N)=N1` [Example 193, N-(3-((4S,6S)-2-amino-4-methyl-6-(trifluoromethyl)-5,6-dihydro-4H-1,3-oxazin-4-yl)-4,5-difluorophenyl)-5-(difluoromethyl)pyrazine-2-carboxamide], for which the IC50 is more than 400 µM in experiment [1] (average IC50); 1270 µM in experiment [1] (average); 0.018 µM in experiment [2] (setting [4]); 0.0213 µM in experiment [2] (HEK293, average IC50, HEK cells, read-out: HEK cell assay IC50); 0.0461 µM in experiment [3] (average IC50); 0.075 µM in experiment [3] (average).

Turning to `COc1cc(Cl)cnc1C(=O)Nc1cc(F)c(F)c([C@]2(C)C[C@@H](C(F)(F)F)OC(N)=N2)c1` [Example 195, N-(3-((4S,6S)-2-amino-4-methyl-6-(trifluoromethyl)-5,6-dihydro-4H-1,3-oxazin-4-yl)-4,5-difluorophenyl)-5-chloro-3-methoxypicolinamide], the IC50 in experiment [1] (average) was more than 400 µM; in experiment [2] (setting [4]) it was 0.011 µM; in experiment [3] (average), 0.071 µM.

As for `C[C@@]1(c2cc(NC(=O)c3nn(C(F)F)cc3Cl)cc(F)c2F)C[C@@H](C(F)(F)F)OC(N)=N1` [Example 196, N-(3-((4S,6S)-2-amino-4-methyl-6-(trifluoromethyl)-5,6-dihydro-4H-1,3-oxazin-4-yl)-4,5-difluorophenyl)-4-chloro-1-(difluoromethyl)-1H-pyrazole-3-carboxamide], the IC50 stood at 628 µM in experiment [1] (average), 0.007 µM in experiment [2] (setting [4]) and 0.011 µM in experiment [3] (average).

On to `COCc1cc(Cl)cnc1C(=O)Nc1cc(F)c(F)c([C@]2(C)C[C@@H](C(F)(F)F)OC(N)=N2)c1` [Example 199, N-(3-((4S,6S)-2-amino-4-methyl-6-(trifluoromethyl)-5,6-dihydro-4H-1,3-oxazin-4-yl)-4,5-difluorophenyl)-5-chloro-3-(methoxymethyl)picolinamide], for which the IC50 is 1710 µM in experiment [1] (average), 0.013 µM in experiment [2] (setting [4]) and 0.016 µM in experiment [3] (average).

`C[C@@]1(c2cc(NC(=O)c3cnc(OCc4ncco4)cn3)cc(F)c2F)C[C@@H](C(F)(F)F)OC(N)=N1` [Example 204, N-(3-((4S,6S)-2-amino-4-methyl-6-(trifluoromethyl)-5,6-dihydro-4H-1,3-oxazin-4-yl)-4,5-difluorophenyl)-5-(oxazol-2-ylmethoxy)pyrazine-2-carboxamide]: the figures for the IC50 in experiment [1] (average), in experiment [2] (setting [5]) and in experiment [3] (average) were 1040 µM, 0.003 µM and 0.006 µM, respectively.

As to `C[C@@]1(c2cc(NC(=O)c3ncc(C#N)cc3F)cc(F)c2F)C[C@@H](C(F)(F)F)OC(N)=N1` [Example 205, N-(3-((4S,6S)-2-amino-4-methyl-6-(trifluoromethyl)-5,6-dihydro-4H-1,3-oxazin-4-yl)-4,5-difluorophenyl)-5-cyano-3-fluoropicolinamide], the IC50 in experiment [1] (average) was more than 400 µM; in experiment [2] (setting [4]) it was 0.01 µM; in experiment [3] (average), 0.039 µM.

On to `C[C@@]1(c2cc(NC(=O)c3ccc(C#N)cn3)cc(Cl)c2F)C[C@@H](C(F)(F)F)OC(N)=N1` [Example 206, N-(3-((4S,6S)-2-amino-4-methyl-6-(trifluoromethyl)-5,6-dihydro-4H-1,3-oxazin-4-yl)-5-chloro-4-fluorophenyl)-5-cyanopicolinamide], for which the half-inhibitory concentration (IC50) in experiment [1] (average) was 488 µM; in experiment [2] (setting [4]) it was 0.012 µM; in experiment [3] (average), 0.023 µM.

Consider `COc1cnc(C(=O)Nc2cc(Cl)c(F)c([C@]3(C)C[C@@H](C(F)(F)F)OC(N)=N3)c2)cn1` [Example 208, N-(3-((4S,6S)-2-amino-4-methyl-6-(trifluoromethyl)-5,6-dihydro-4H-1,3-oxazin-4-yl)-5-chloro-4-fluorophenyl)-5-methoxypyrazine-2-carboxamide], for which the results for the IC50 in experiment [1] (average), in experiment [2] (setting [5]) and in experiment [3] (average) were 394 µM, 0.003 µM and 0.012 µM, respectively.

In the case of `COc1ccc(C(=O)Nc2cc(Cl)c(F)c([C@]3(C)C[C@@H](C(F)(F)F)OC(N)=N3)c2)nc1` [Example 209, N-(3-((4S,6S)-2-amino-4-methyl-6-(trifluoromethyl)-5,6-dihydro-4H-1,3-oxazin-4-yl)-5-chloro-4-fluorophenyl)-5-methoxypicolinamide], the IC50 was found to be 622 µM in experiment [1] (average), 0.035 µM in experiment [2] (setting [4]) and 0.015 µM in experiment [3] (average).

In the case of `C[C@@]1(c2cc(NC(=O)c3cnc(C(F)F)cn3)cc(Cl)c2F)C[C@@H](C(F)(F)F)OC(N)=N1` [Example 211, N-(3-((4S,6S)-2-amino-4-methyl-6-(trifluoromethyl)-5,6-dihydro-4H-1,3-oxazin-4-yl)-5-chloro-4-fluorophenyl)-5-(difluoromethyl)pyrazine-2-carboxamide], the IC50 was determined as 604 µM in experiment [1] (average), 0.047 µM in experiment [2] (setting [5]) and 0.062 µM in experiment [3] (average).

Turning to `C#CCOc1cnc(C(=O)Nc2cc(Cl)c(F)c([C@]3(C)C[C@@H](C(F)(F)F)OC(N)=N3)c2)cn1` [Example 212, N-(3-((4S,6S)-2-amino-4-methyl-6-(trifluoromethyl)-5,6-dihydro-4H-1,3-oxazin-4-yl)-5-chloro-4-fluorophenyl)-5-(prop-2-yn-1-yloxy)pyrazine-2-carboxamide], the concentration for half-maximal inhibition (IC50) in experiment [1] (average) was 554 µM; in experiment [2] (setting [4]), 0.001 µM; in experiment [3] (average), less than 0.002 µM.

Consider `C[C@@]1(c2cc(NC(=O)c3ccc(Br)cn3)cc(Cl)c2F)C[C@@H](C(F)(F)F)OC(N)=N1` [Example 213, N-(3-((4S,6S)-2-amino-4-methyl-6-(trifluoromethyl)-5,6-dihydro-4H-1,3-oxazin-4-yl)-5-chloro-4-fluorophenyl)-5-bromopicolinamide], for which the figures for the IC50 in experiment [1] (average), in experiment [2] (setting [4]) and in experiment [3] (average) were 739 µM, 0.0319 µM and 0.01 µM, respectively.

As to `C[C@@]1(c2cc(NC(=O)c3cnc(OCC(F)(F)F)cn3)cc(Cl)c2F)C[C@@H](C(F)(F)F)OC(N)=N1` [Example 214, N-(3-((4S,6S)-2-amino-4-methyl-6-(trifluoromethyl)-5,6-dihydro-4H-1,3-oxazin-4-yl)-5-chloro-4-fluorophenyl)-5-(2,2,2-trifluoroethoxy)pyrazine-2-carboxamide], the IC50 in experiment [1] (average) was more than 400 µM; in experiment [2] (setting [4]), 0.029 µM; in experiment [3] (average), 0.008 µM.

Take `COc1cnc(C(=O)Nc2cc(C)c(F)c([C@]3(CF)C[C@@H](C(F)(F)F)OC(N)=N3)c2)c(C)n1` [Example 217, N-(3-((4S,6S)-2-amino-4-(fluoromethyl)-6-(trifluoromethyl)-5,6-dihydro-4H-1,3-oxazin-4-yl)-4-fluoro-5-methylphenyl)-5-methoxy-3-methylpyrazine-2-carboxamide]: the IC50 was found to be 634 µM in experiment [1] (average), 0.038 µM in experiment [2] (setting [4]) and 0.081 µM in experiment [3] (average).

Regarding `C#CCOc1cnc(C(=O)Nc2cc(C)c(F)c([C@]3(CF)C[C@@H](C(F)(F)F)OC(N)=N3)c2)cn1` [Example 218, N-(3-((4S,6S)-2-amino-4-(fluoromethyl)-6-(trifluoromethyl)-5,6-dihydro-4H-1,3-oxazin-4-yl)-4-fluoro-5-methylphenyl)-5-(prop-2-yn-1-yloxy)pyrazine-2-carboxamide], the IC50 came to 188 µM in experiment [1] (average), 0.002 µM in experiment [2] (setting [4]) and 0.001 µM in experiment [3] (average).

Take `Cc1cc(C#N)cnc1C(=O)Nc1cc(C)c(F)c([C@]2(CF)C[C@@H](C(F)(F)F)OC(N)=N2)c1` [Example 219, N-(3-((4S,6S)-2-amino-4-(fluoromethyl)-6-(trifluoromethyl)-5,6-dihydro-4H-1,3-oxazin-4-yl)-4-fluoro-5-methylphenyl)-5-cyano-3-methylpicolinamide]: the IC50 in experiment [1] (average) is more than 400 µM; in experiment [2] (setting [4]), 0.011 µM; in experiment [3] (average), 0.02 µM.

As for `Cc1cc(OCC(F)(F)F)cnc1C(=O)Nc1cc(C)c(F)c([C@]2(CF)C[C@@H](C(F)(F)F)OC(N)=N2)c1` [Example 220, N-(3-((4S,6S)-2-amino-4-(fluoromethyl)-6-(trifluoromethyl)-5,6-dihydro-4H-1,3-oxazin-4-yl)-4-fluoro-5-methylphenyl)-3-methyl-5-(2,2,2-trifluoroethoxy)picolinamide], the IC50 was found to be 263 µM in experiment [1] (average), 0.429 µM in experiment [2] (setting [5]) and 0.066 µM in experiment [3] (average).
